One data set relates to influenza virus. As to conditions: for cell death due to influenza virus infection (result in words): 5 and 10 μM, 48 hours, MDCK cells.
The subject of the next data set is HCV-NS5A protein. Nature of the data set: HCV protein expression-suppressing activity by Western blotting in LuHCV cells. Format: cell-based, hepatitis C virus (HCV). Conditions: 20 μM, 14 hours and 60 hours. The method, then:
LuHCV cells were plated onto 10-cm dishes at 1×10^6 cells/dish and then incubated overnight or longer. Subsequently, Compound 5 dissolved in DMSO was added at a final concentration of 20 μM. Cells were further gently cultured under culture conditions of 37° C. and 5% CO2. DMSO alone was added to a control dish. At 14 hours and 60 hours after addition of Compound 5, cells were collected. Cells were lysed using a cell lysis solution (25 mM NaPO4 (pH 7.5), 150 mM NaCl, 1% Triton X-100, 1 mM EDTA, 20% glycerol, and protease inhibitor cocktail (Roche Diagnostics)), so that cell extracts were obtained. With the use of the thus obtained cell extracts (10 μg each), expression analysis was performed by Western blotting for an HCV-NS5A protein (an antibody was purchased from Virogen) and β-actin (an antibody was purchased from Sigma).

A further data set has as its system HCV RNA (NS5A). Nature of the data set: Effects on replication and stability of HCV RNA (RT-PCR) in LuHCV cells. As to conditions: 20 μM, 14 hours and 60 hours. Format: cell-based, hepatitis C virus (HCV). As to the method: LuHCV cells were plated onto 10-cm dishes at 1×10^6 cells/dish and then incubated overnight or longer. Subsequently, Compound 5 dissolved in DMSO was added at a final concentration of 20 μM. Cells were further gently cultured under culture conditions of 37° C. and 5% CO2. DMSO alone was added to a control dish. At 14 hours and 60 hours after addition of Compound 5, cells were collected and then total RNA was extracted using Sepasol-RNA (NACALAI TESQUE, INC.). cDNA was synthesized using SuperScript II reverse transcriptase (Invitrogen) and oligo-dTprimer (Promega) or random primers (Invitrogen Corporation). PCR was performed using the thus synthesized cDNA as a template, NS5A-specific primers (5′-[…]-3′ (SEQ ID NO: 1) and 5′-[…]-3′ (SEQ ID NO: 2)), GAPDH primers (5′-[…]-3′ (SEQ ID NO: 3) and 5′-[…]-3′ (SEQ ID NO: 4)), and PrimeSTAR HS DNA polymerase (Takara Bio Inc.). After DNA amplification reaction, agarose gel electrophoresis and ethidium bromide staining were performed. The expression level of each gene was evaluated using a UV transilluminator.

A short description of data set [1]: Toxicity test by repeated in vivo administration. Conditions: oral. Further details: species or system mice (Cr1j/CD1 (ICR) mice, male). As to the method: A conditioning period of one week (day-7 to day-1) was provided for mice (Cr1j/CD1 (ICR) mice, male, 5-week-old), and then the mice were grouped based on the mean body weight on the day before the initiation of the test. Also, the dose of Compound 5 was calculated based on the mean body weight (day-1). There were 2 groups to which Compound 5 was administered: a placebo-administered group (n=6) to which a placebo was administered and a Compound 5-administered group (n=6) to which Compound 5 was administered. On the days of administration (day 00 to day 07), the test compound formulated using 0.5% carboxymethyl cellulose was administered via oral administration for 7 days in a row. Symptoms were observed during the administration period.
During the test period, the body weight of each mouse was weighed on day −7, day −3, day −1, day 4, and day 7.

The subject of data set [2] is intracellular HCV protein (NS3-NS4-NS5A-NS5B). Nature of the data set: HCV viral protein expression assay using LuHCV cells (luciferase activity). Conditions: for luciferase activity (result in words): 0, 10 and 20 μM; for luciferase activity (result in words) / decrease in luminescence intensity compared with the control: 48 hours, LuHCV cells; for decrease in luminescence intensity compared with the control: 10 μM.
Protocol: As an HCV viral protein expression assay, screening was performed for compounds having anti-HCV activity using human hepatocytes with which the replication and expression of the intracellular HCV protein (NS3-NS4-NS5A-NS5B) can be evaluated through determination of luciferase activity (hereinafter, referred to as LuHCV).
LuHCV cells were plated onto 96-well plates at 5×10^3 cells/50 μL/well and then incubated overnight. Test compounds were each dissolved in dimethyl sulfoxide (DMSO) and dilution series were prepared using DMSO, if necessary. On the next day of plating of LuHCV cells, a medium containing a test compound with a concentration twice the final test concentration was added at 50 μL/well. Cells were gently cultured under culture conditions of 48 hours, 37° C., and 5% CO2 (the final concentrations of the test compounds: 0, 10, and 20 μM). At this time, analysis was made using 3 test wells for each test compound and for each concentration.
Culture medium was removed after 48 hours. Glo lysis buffer (100 μL) (Promega) was added to each well and then cells were disrupted, so that a cell extract was obtained. With the use of 50 μL of the thus obtained cell extract, 50 μL of a Bright-Glo™ Luciferase Assay System (Promega) reagent was added. Luciferase activity in the extract was determined by measuring luminescence intensity for one second using a measuring device ARVO (PerkinElmer Co., Ltd.).
Based on the thus obtained numerical values of luminescence intensity, an average value for each test compound at each concentration was calculated. The luminescence intensity percentage for each test compound was calculated based on a luminescence intensity for DMSO (used as a control for test substances) as 100%.
Culture medium was removed after 48 hours. Glo Lysis buffer (100 μL) (Promega) was added to each well and then cells were disrupted, so that a cell extract was obtained. With the use of 50 μL of the thus obtained cell extract, 50 μL of a Bright-Glo™ Luciferase Assay System (Promega) reagent was added. Luciferase activity in the extract was determined by measuring luminescence intensity for one second using a measuring device ARVO (PerkinElmer Co., Ltd.).
Based on the thus obtained numerical values of luminescence intensity, an average value for each test compound at each concentration was calculated. The luminescence intensity percentage for each test compound was calculated based on a luminescence intensity of DMSO (used as a control for test substances) as 100%.

Data set [3] deals with LuHCV cells. Nature of the data set: Effects on the growth of LuHCV cells (hemocytometer count). Conditions: 20 μM, 0, 6, 12, 24, 36 and 48 hours. Format: cell-based, human. The method, then: LuHCV cells were plated onto a 6-well plate at 5×10^4 cells/1 mL/well and then incubated overnight. […] The final concentration of Compound 5 was 20 μM. […] After addition of Compound 5, cells were collected from 3 wells at 0, 6, 12, 24, 36, and 48 hours later, the number of viable cells per well was measured using a hemocytometer, and then the average value was calculated. Wells to which only DMSO had been added were used as control wells.

The subject of data set [4] is LuHCV cells. As to the kind of experiment: Evaluation of cell growth suppression using LuHCV cells (percentage of viable cells, reagent SF). Format: cell-based, human. As to conditions: 48 hours, DMSO = 100%. The method, then:
At this time, as a background absorbance, measurement was also performed for wells containing test compounds (or DMSO used as a control), but containing no cells. Each of the thus obtained background numerical values was deducted from the absorbance of a cell-containing well (measured for the same compound at the same concentration). The resulting value was designated as actual measurement of number of viable cells containing no background. […] With an average value measured for DMSO used as a control test substance designated as 100%, the percentage of the number of viable cells for each test compound was calculated.
At this time, as a background absorbance, measurement was also performed for wells containing test compounds (or containing DMSO used as a control), but containing no cells. Each of the thus obtained background numerical values was deducted from the absorbance of a cell-containing well (measured for the same compound at the same concentration). The resulting value was designated as actual measurement of number of viable cells containing no background. […] By using a value measured upon addition of DMSO used as a control test substance designated as 100%, the percentage of the number of viable cells for each test compound was calculated. Table 1-2 and FIG. 2B show the percentage of the number of viable cells (cell viability (% control)) for each test compound at each concentration.

The mark [5] stands for this setting: Hepatitis C virus, 48 h, read-out: luc activity (% control).

This note sets out measurements from US8765941B2 (Kino Pharma, Inc., priority 2008, dated 2014).

Read-outs that look alike come from different tables or passages of the source. Where only a bound is given, the exact number is not on record here.

Take `O=C(NC(=S)Nc1cc(C(F)(F)F)ccc1N1CCCCCCC1)c1cccnc1` [Compound 5, N-nicotinoyl-N′-[2-(azacyclooctan-1-yl)-5-(trifluoromethyl)phenyl]thiourea]: the “viability (% control)” value in the data set with influenza virus (5 µM) is on record as 41.8 ± 2.2 % control. Moreover, the “viability (% control)” value with influenza virus (10 µM) amounted to 63.1 ± 0.9 % control. Further, in the data set on influenza virus, the “cell death due to influenza virus infection (result in words)” value (from here on “cell death due”) is “cell death was decreased”. Moreover, in the data set on HCV-NS5A protein, the “expression level of NS5A (Western blotting)” value is “a decrease in the expression level of NS5A was observed” and the “expression level of β-actin (Western blotting)” value is on record as “no change was observed”. Moreover, the “amount of NS5A and GAPDH RNA (RT-PCR)” value with HCV RNA (NS5A) is reported as “no quantitative change was observed”. The “dead mice during the administration period” value in data set [1] (1000 mg/kg/day, 7 days) was “no dead mice were observed”. For the same compound, in data set [1] (7 days repeated administration, mice), the “level at which no adverse effect is observed” value was ≥ 1000 mg/kg. Also, in data set [2], the “luciferase activity (result in words)” value is recorded as “Decreases in luciferase activity” and the “decrease in luminescence intensity compared with the control” value was “about 50%”. For the same compound, the “number of viable cells at each time point versus DMSO control” value in the data set on LuHCV cells [3] is reported as “Almost no differences were observed”.

For `O=C(NC(=S)Nc1cc(C(F)(F)F)ccc1N1CCCCCCCC1)c1cccnc1` [Compound 6, N-nicotinoyl-N′-[2-(azacyclononan-1-yl)-5-(trifluoromethyl)phenyl]thiourea], the “viability (% control)” value in the data set on influenza virus (5 µM) amounted to 42.1 ± 1.5 % control; in the data set with influenza virus (10 µM), 80.9 ± 3.2 % control. The “cell death due” value with influenza virus is “cell death was decreased”. Also, the “luciferase activity (result in words)” value in data set [2] is “Decreases in luciferase activity”. Besides, the “decrease in luminescence intensity compared with the control” value in data set [2] is on record as “about 50%”.

On to `O=C(NC(=S)Nc1cc(C(F)(F)F)ccc1N1CCCCCCC1)c1ccccc1` [Compound 14, N-benzoyl-N′-[2-(azacyclooctan-1-yl)-5-(trifluoromethyl)phenyl]thiourea], for which the “viability (% control)” value with influenza virus (5 µM) is reported as 71.6 ± 2.2 % control; in the data set with influenza virus (10 µM), 100.0 ± 2.0 % control; in the data set on LuHCV cells [4] (10 μM), 103.81 % control; with LuHCV cells [4] (20 μM) it was 103.76 % control. In addition, the “cell death due” value in the data set with influenza virus is on record as “cell death was decreased”. Besides, the activity at 10 µM in data set [2] (setting [5]) is 30.3%. Further, in data set [2] (setting [5]), the activity at 20 µM was determined as 14.8%.
